These results are taken from PubChem BioAssay AID2060508 (Molecular Pharmacology Branch, DTP, NCI, 2025).
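Note: spheroids exposed to compounds for seven days; 100% = DMSO vehicle control viability.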

The first assay relates to 454973-116-R2-J3-PDC spheroids, viability, % test/control. Briefly: Anticancer human tumor 454973-116-R2-J3-PDC patient-derived pancreatic carcinoma cell line growth inhibition [GQUAD]. The note with it: second compound 0.0316 µM; first compound 3.16 µM; active compounds read low; spheroids with HUVEC and MSC. An outline of the steps:
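Viability of tumor cells grown as complex spheroids with endothelial and stromal cells, exposed to drug combinations. Top concentration at or near clinical Cmax (else 10 microM), diluted in half-log increments.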
What is called viability, T/C is the ratio of treated to control. Take `Nc1ccn(C2OC(CO)C(O)C2(F)F)c(=O)n1` (configuration not stated) + CN(C)c1ccc(Nc2c3ccc(NC(=O)CCN4CCCC4)cc3nc3cc(NC(=O)CCN4CCCC4)ccc23)cc1: the viability, T/C is 14.7%.
On the same count and under the same terms, then `O=c1[nH]cc(F)c(=O)[nH]1` + CN(C)c1ccc(Nc2c3ccc(NC(=O)CCN4CCCC4)cc3nc3cc(NC(=O)CCN4CCCC4)ccc23)cc1, with 32.1%.

Still in this assay, the particulars now being: second compound 0.0316 µM; first compound 10 µM; active compounds read low; spheroids with HUVEC and MSC.
On to `COc1cc(C2c3cc4c(cc3C(OC3OC5COC(C)OC5C(O)C3O)C3COC(=O)C23)OCO4)cc(OC)c1O` (configuration not stated) + CN(C)c1ccc(Nc2c3ccc(NC(=O)CCN4CCCC4)cc3nc3cc(NC(=O)CCN4CCCC4)ccc23)cc1, for which the viability, T/C is 15%.
Consider `COc1cccc2c1C(=O)c1c(O)c3c(c(O)c1C2=O)CC(O)(C(=O)CO)CC3OC1CC(N)C(O)C(C)O1` (configuration not stated) + CN(C)c1ccc(Nc2c3ccc(NC(=O)CCN4CCCC4)cc3nc3cc(NC(=O)CCN4CCCC4)ccc23)cc1, for which the viability, T/C is 1.74%.
The same measure, in the same setting: then `Nc1ccn(C2OC(CO)C(O)C2(F)F)c(=O)n1` (configuration not stated) + CN(C)c1ccc(Nc2c3ccc(NC(=O)CCN4CCCC4)cc3nc3cc(NC(=O)CCN4CCCC4)ccc23)cc1, with 15.6%.
On the same count and under the same terms, the same measure for `O=c1[nH]cc(F)c(=O)[nH]1` + CN(C)c1ccc(Nc2c3ccc(NC(=O)CCN4CCCC4)cc3nc3cc(NC(=O)CCN4CCCC4)ccc23)cc1: 30.2%.

The assay is the same for the next values; noted with them: second compound 0.1 µM; first compound 0.0316 µM; active compounds read low; spheroids with HUVEC and MSC.
For `COc1cc(C2c3cc4c(cc3C(OC3OC5COC(C)OC5C(O)C3O)C3COC(=O)C23)OCO4)cc(OC)c1O` (configuration not stated) + CN(C)c1ccc(Nc2c3ccc(NC(=O)CCN4CCCC4)cc3nc3cc(NC(=O)CCN4CCCC4)ccc23)cc1, the viability, T/C is 106%.
As for `COc1cccc2c1C(=O)c1c(O)c3c(c(O)c1C2=O)CC(O)(C(=O)CO)CC3OC1CC(N)C(O)C(C)O1` (configuration not stated) + CN(C)c1ccc(Nc2c3ccc(NC(=O)CCN4CCCC4)cc3nc3cc(NC(=O)CCN4CCCC4)ccc23)cc1, the viability, T/C is 98.9%.
For `Nc1ccn(C2OC(CO)C(O)C2(F)F)c(=O)n1` (configuration not stated) + CN(C)c1ccc(Nc2c3ccc(NC(=O)CCN4CCCC4)cc3nc3cc(NC(=O)CCN4CCCC4)ccc23)cc1, the viability, T/C is 20.7%.
On the same count and under the same terms, the same measure for `O=c1[nH]cc(F)c(=O)[nH]1` + CN(C)c1ccc(Nc2c3ccc(NC(=O)CCN4CCCC4)cc3nc3cc(NC(=O)CCN4CCCC4)ccc23)cc1: 106%.

The assay is the same for the next values; noted with them: second compound 0.1 µM; first compound 0.1 µM; active compounds read low; spheroids with HUVEC and MSC.
`COc1cc(C2c3cc4c(cc3C(OC3OC5COC(C)OC5C(O)C3O)C3COC(=O)C23)OCO4)cc(OC)c1O` (configuration not stated) + CN(C)c1ccc(Nc2c3ccc(NC(=O)CCN4CCCC4)cc3nc3cc(NC(=O)CCN4CCCC4)ccc23)cc1: the viability, T/C is 98.7%.
`COc1cccc2c1C(=O)c1c(O)c3c(c(O)c1C2=O)CC(O)(C(=O)CO)CC3OC1CC(N)C(O)C(C)O1` (configuration not stated) + CN(C)c1ccc(Nc2c3ccc(NC(=O)CCN4CCCC4)cc3nc3cc(NC(=O)CCN4CCCC4)ccc23)cc1: the viability, T/C was 71.8%.
The same measure, in the same setting: then `Nc1ccn(C2OC(CO)C(O)C2(F)F)c(=O)n1` (configuration not stated) + CN(C)c1ccc(Nc2c3ccc(NC(=O)CCN4CCCC4)cc3nc3cc(NC(=O)CCN4CCCC4)ccc23)cc1, with 13.5%; and `O=c1[nH]cc(F)c(=O)[nH]1` + CN(C)c1ccc(Nc2c3ccc(NC(=O)CCN4CCCC4)cc3nc3cc(NC(=O)CCN4CCCC4)ccc23)cc1, with 95.6%.

Still in this assay, the particulars now being: second compound 0.1 µM; first compound 0.316 µM; active compounds read low; spheroids with HUVEC and MSC.
Regarding `COc1cc(C2c3cc4c(cc3C(OC3OC5COC(C)OC5C(O)C3O)C3COC(=O)C23)OCO4)cc(OC)c1O` (configuration not stated) + CN(C)c1ccc(Nc2c3ccc(NC(=O)CCN4CCCC4)cc3nc3cc(NC(=O)CCN4CCCC4)ccc23)cc1, the viability, T/C is 89.1%.
Still for that read-out and setting: the same measure for `COc1cccc2c1C(=O)c1c(O)c3c(c(O)c1C2=O)CC(O)(C(=O)CO)CC3OC1CC(N)C(O)C(C)O1` (configuration not stated) + CN(C)c1ccc(Nc2c3ccc(NC(=O)CCN4CCCC4)cc3nc3cc(NC(=O)CCN4CCCC4)ccc23)cc1: 36.3%; for `Nc1ccn(C2OC(CO)C(O)C2(F)F)c(=O)n1` (configuration not stated) + CN(C)c1ccc(Nc2c3ccc(NC(=O)CCN4CCCC4)cc3nc3cc(NC(=O)CCN4CCCC4)ccc23)cc1: 14.9%.
Still for that read-out and setting: the same measure for `O=c1[nH]cc(F)c(=O)[nH]1` + CN(C)c1ccc(Nc2c3ccc(NC(=O)CCN4CCCC4)cc3nc3cc(NC(=O)CCN4CCCC4)ccc23)cc1: 103%.

The same assay, now with this note: second compound 0.1 µM; first compound 1 µM; active compounds read low; spheroids with HUVEC and MSC.
Regarding `COc1cc(C2c3cc4c(cc3C(OC3OC5COC(C)OC5C(O)C3O)C3COC(=O)C23)OCO4)cc(OC)c1O` (configuration not stated) + CN(C)c1ccc(Nc2c3ccc(NC(=O)CCN4CCCC4)cc3nc3cc(NC(=O)CCN4CCCC4)ccc23)cc1, the viability, T/C is 58.8%.
Still for that read-out and setting: then `COc1cccc2c1C(=O)c1c(O)c3c(c(O)c1C2=O)CC(O)(C(=O)CO)CC3OC1CC(N)C(O)C(C)O1` (configuration not stated) + CN(C)c1ccc(Nc2c3ccc(NC(=O)CCN4CCCC4)cc3nc3cc(NC(=O)CCN4CCCC4)ccc23)cc1, with 31.1%.
As for `Nc1ccn(C2OC(CO)C(O)C2(F)F)c(=O)n1` (configuration not stated) + CN(C)c1ccc(Nc2c3ccc(NC(=O)CCN4CCCC4)cc3nc3cc(NC(=O)CCN4CCCC4)ccc23)cc1, the viability, T/C is 16.6%.
On the same count and under the same terms, then `O=c1[nH]cc(F)c(=O)[nH]1` + CN(C)c1ccc(Nc2c3ccc(NC(=O)CCN4CCCC4)cc3nc3cc(NC(=O)CCN4CCCC4)ccc23)cc1, with 83.4%.

Still in this assay, the particulars now being: second compound 0.1 µM; first compound 3.16 µM; active compounds read low; spheroids with HUVEC and MSC.
For the compound `COc1cc(C2c3cc4c(cc3C(OC3OC5COC(C)OC5C(O)C3O)C3COC(=O)C23)OCO4)cc(OC)c1O` (configuration not stated) + CN(C)c1ccc(Nc2c3ccc(NC(=O)CCN4CCCC4)cc3nc3cc(NC(=O)CCN4CCCC4)ccc23)cc1, the viability, T/C is 21.3%.
Same read-out and setting: the same measure for `COc1cccc2c1C(=O)c1c(O)c3c(c(O)c1C2=O)CC(O)(C(=O)CO)CC3OC1CC(N)C(O)C(C)O1` (configuration not stated) + CN(C)c1ccc(Nc2c3ccc(NC(=O)CCN4CCCC4)cc3nc3cc(NC(=O)CCN4CCCC4)ccc23)cc1: 20.8%.
As for `Nc1ccn(C2OC(CO)C(O)C2(F)F)c(=O)n1` (configuration not stated) + CN(C)c1ccc(Nc2c3ccc(NC(=O)CCN4CCCC4)cc3nc3cc(NC(=O)CCN4CCCC4)ccc23)cc1, the viability, T/C was 13.2%.
Same read-out and setting: the same measure for `O=c1[nH]cc(F)c(=O)[nH]1` + CN(C)c1ccc(Nc2c3ccc(NC(=O)CCN4CCCC4)cc3nc3cc(NC(=O)CCN4CCCC4)ccc23)cc1: 28.5%.

Staying with this assay, now noted: second compound 0.1 µM; first compound 10 µM; active compounds read low; spheroids with HUVEC and MSC.
Regarding `COc1cc(C2c3cc4c(cc3C(OC3OC5COC(C)OC5C(O)C3O)C3COC(=O)C23)OCO4)cc(OC)c1O` (configuration not stated) + CN(C)c1ccc(Nc2c3ccc(NC(=O)CCN4CCCC4)cc3nc3cc(NC(=O)CCN4CCCC4)ccc23)cc1, the viability, T/C was 15.3%.
Turning to `COc1cccc2c1C(=O)c1c(O)c3c(c(O)c1C2=O)CC(O)(C(=O)CO)CC3OC1CC(N)C(O)C(C)O1` (configuration not stated) + CN(C)c1ccc(Nc2c3ccc(NC(=O)CCN4CCCC4)cc3nc3cc(NC(=O)CCN4CCCC4)ccc23)cc1, the viability, T/C was 2.34%.
On the same count and under the same terms, the same measure for `Nc1ccn(C2OC(CO)C(O)C2(F)F)c(=O)n1` (configuration not stated) + CN(C)c1ccc(Nc2c3ccc(NC(=O)CCN4CCCC4)cc3nc3cc(NC(=O)CCN4CCCC4)ccc23)cc1: 15.4%.
On to `O=c1[nH]cc(F)c(=O)[nH]1` + CN(C)c1ccc(Nc2c3ccc(NC(=O)CCN4CCCC4)cc3nc3cc(NC(=O)CCN4CCCC4)ccc23)cc1, for which the viability, T/C was 31.7%.

Staying with this assay, now noted: second compound 0.316 µM; first compound 0.0316 µM; active compounds read low; spheroids with HUVEC and MSC.
Regarding `COc1cc(C2c3cc4c(cc3C(OC3OC5COC(C)OC5C(O)C3O)C3COC(=O)C23)OCO4)cc(OC)c1O` (configuration not stated) + CN(C)c1ccc(Nc2c3ccc(NC(=O)CCN4CCCC4)cc3nc3cc(NC(=O)CCN4CCCC4)ccc23)cc1, the viability, T/C was 97.3%.
The same measure, in the same setting: then `COc1cccc2c1C(=O)c1c(O)c3c(c(O)c1C2=O)CC(O)(C(=O)CO)CC3OC1CC(N)C(O)C(C)O1` (configuration not stated) + CN(C)c1ccc(Nc2c3ccc(NC(=O)CCN4CCCC4)cc3nc3cc(NC(=O)CCN4CCCC4)ccc23)cc1, with 100%; and `Nc1ccn(C2OC(CO)C(O)C2(F)F)c(=O)n1` (configuration not stated) + CN(C)c1ccc(Nc2c3ccc(NC(=O)CCN4CCCC4)cc3nc3cc(NC(=O)CCN4CCCC4)ccc23)cc1, with 16.9%.
As for `O=c1[nH]cc(F)c(=O)[nH]1` + CN(C)c1ccc(Nc2c3ccc(NC(=O)CCN4CCCC4)cc3nc3cc(NC(=O)CCN4CCCC4)ccc23)cc1, the viability, T/C was 102%.

The same assay, now with this note: second compound 0.316 µM; first compound 0.1 µM; active compounds read low; spheroids with HUVEC and MSC.
Regarding `COc1cc(C2c3cc4c(cc3C(OC3OC5COC(C)OC5C(O)C3O)C3COC(=O)C23)OCO4)cc(OC)c1O` (configuration not stated) + CN(C)c1ccc(Nc2c3ccc(NC(=O)CCN4CCCC4)cc3nc3cc(NC(=O)CCN4CCCC4)ccc23)cc1, the viability, T/C was 98.7%.
On to `COc1cccc2c1C(=O)c1c(O)c3c(c(O)c1C2=O)CC(O)(C(=O)CO)CC3OC1CC(N)C(O)C(C)O1` (configuration not stated) + CN(C)c1ccc(Nc2c3ccc(NC(=O)CCN4CCCC4)cc3nc3cc(NC(=O)CCN4CCCC4)ccc23)cc1, for which the viability, T/C is 69.8%.
`Nc1ccn(C2OC(CO)C(O)C2(F)F)c(=O)n1` (configuration not stated) + CN(C)c1ccc(Nc2c3ccc(NC(=O)CCN4CCCC4)cc3nc3cc(NC(=O)CCN4CCCC4)ccc23)cc1: the viability, T/C was 15.3%.
For the compound `O=c1[nH]cc(F)c(=O)[nH]1` + CN(C)c1ccc(Nc2c3ccc(NC(=O)CCN4CCCC4)cc3nc3cc(NC(=O)CCN4CCCC4)ccc23)cc1, the viability, T/C was 103%.

The assay is the same for the next values; noted with them: second compound 0.316 µM; first compound 0.316 µM; active compounds read low; spheroids with HUVEC and MSC.
Turning to `COc1cc(C2c3cc4c(cc3C(OC3OC5COC(C)OC5C(O)C3O)C3COC(=O)C23)OCO4)cc(OC)c1O` (configuration not stated) + CN(C)c1ccc(Nc2c3ccc(NC(=O)CCN4CCCC4)cc3nc3cc(NC(=O)CCN4CCCC4)ccc23)cc1, the viability, T/C was 78.8%.
On the same count and under the same terms, then `COc1cccc2c1C(=O)c1c(O)c3c(c(O)c1C2=O)CC(O)(C(=O)CO)CC3OC1CC(N)C(O)C(C)O1` (configuration not stated) + CN(C)c1ccc(Nc2c3ccc(NC(=O)CCN4CCCC4)cc3nc3cc(NC(=O)CCN4CCCC4)ccc23)cc1, with 33.4%; and `Nc1ccn(C2OC(CO)C(O)C2(F)F)c(=O)n1` (configuration not stated) + CN(C)c1ccc(Nc2c3ccc(NC(=O)CCN4CCCC4)cc3nc3cc(NC(=O)CCN4CCCC4)ccc23)cc1, with 15.3%; and `O=c1[nH]cc(F)c(=O)[nH]1` + CN(C)c1ccc(Nc2c3ccc(NC(=O)CCN4CCCC4)cc3nc3cc(NC(=O)CCN4CCCC4)ccc23)cc1, with 96.8%.
